Assay results taken from article PMC9025901, “New Genetic Bomb Trigger: Design, Synthesis, Molecular Dynamics Simulation, and Biological Evaluation of Novel BIBR1532-Related Analogs Targeting Telomerase against Non-Small Cell Lung Cancer” (Pharmaceuticals, 2022).

Columns and labels:
OVCAR-5 = experiment: NCI-60 in vitro anticancer screening (SRB); settings: OVCAR-5, Ovarian cancer; 10 µM, 48 h
Procedure: (§1) The cancer screening panel’s human tumor 60 cell lines were cultured in the RPMI 1640 medium with (5%) fetal bovine serum and (2 mM) L-glutamine. For a screening experiment, cells were injected onto 96-well microtiter plates (100 µL), with plating densities varying from 5 to 40 × 10^3 cells per well, depending on different cell lines’ doubling times. Before introducing experimental drugs, the microtiter plates were incubated overnight at 37 °C, 95% air, 5% CO2, and 100% relative humidity after cell injection. TCA was employed to keep each cell line in place overnight, resembling a computation of the cell population for every cell line at the time of the addition of the drug. The experimental drugs were chilled after solubilization in DMSO at 400 times the final maximum test concentration. At the moment of the addition of the drug, the aliquot of the frozen concentrate was thawed and diluted to twice the required final maximum concentration with the complete medium containing (50 µg/mL) gentamicin. […] The bound dye was then solubilized with a (10 mM) trizma base, and absorbance was calculated at 515 nm on an automatic reader. […] The % growth of treated cells was established using seven absorbance measurements and compared to untreated control cells [57].

HCT-15 = experiment: NCI-60 in vitro anticancer screening (SRB); settings: HCT-15, Colon cancer; 10 µM, 48 h
Procedure: as §1

HOP-92 = experiment: NCI-60 in vitro anticancer screening (SRB); settings: HOP-92, Lung cancer (NSCLC); 10 µM, 48 h
Procedure: as §1

SF-268 = experiment: NCI-60 in vitro anticancer screening (SRB); settings: SF-268, CNS cancer; 10 µM, 48 h
Procedure: as §1

NCI/ADR-RES = experiment: NCI-60 in vitro anticancer screening (SRB); settings: Ovarian cancer, 10 µM, 48 h
Procedure: as §1

OVCAR-4 = experiment: NCI-60 in vitro anticancer screening (SRB); settings: OVCAR-4, Ovarian cancer; 10 µM, 48 h
Procedure: as §1

SNB-75 = experiment: NCI-60 in vitro anticancer screening (SRB); settings: SNB-75, CNS cancer; 10 µM, 48 h
Procedure: as §1

T-47D = experiment: NCI-60 in vitro anticancer screening (SRB); settings: Breast cancer, 10 µM, 48 h
Procedure: (§2) The cancer screening panel’s human tumor 60 cell lines were cultured in the RPMI 1640 medium with (5%) fetal bovine serum and (2 mM) L-glutamine. For a screening experiment, cells were injected onto 96-well microtiter plates (100 µL), with plating densities varying from 5 to 40 × 10^3 cells per well, depending on different cell lines’ doubling times. Before introducing experimental drugs, the microtiter plates were incubated overnight at 37 °C, 95% air, 5% CO2, and 100% relative humidity after cell injection. TCA was employed to keep each cell line in place overnight, resembling a computation of the cell population for every cell line at the time of the addition of the drug. The experimental drugs were chilled after solubilization in DMSO at 400 times the final maximum test concentration. At the moment of the addition of the drug, the aliquot of the frozen concentrate was thawed and diluted to twice the required final maximum concentration with the complete medium containing (50 µg/mL) gentamicin. The required final concentration of the drug (10 µM) was reached by adding 100 µL aliquots of these definite dilutions of the drug to suitable microtiter wells previously holding a medium of 100 µL. […] The bound dye was then solubilized with a (10 mM) trizma base, and absorbance was calculated at 515 nm on an automatic reader. […]

MDA-MB-468 = experiment: NCI-60 in vitro anticancer screening (SRB); settings: MDA-MB-468, Breast cancer; 10 µM, 48 h
Procedure: as §1

A498 = experiment: NCI-60 in vitro anticancer screening (SRB); settings: A498, Renal cancer; 10 µM, 48 h
Procedure: as §2

A549/ATCC = experiment: NCI-60 in vitro anticancer screening (SRB); settings: Lung cancer (NSCLC), 10 µM, 48 h
Procedure: as §1

HS 578T = experiment: NCI-60 in vitro anticancer screening (SRB); settings: Breast cancer, 10 µM, 48 h
Procedure: as §2

EKVX = experiment: NCI-60 in vitro anticancer screening (SRB); settings: Lung cancer (NSCLC), 10 µM, 48 h
Procedure: as §1

NCI-H522 = experiment: NCI-60 in vitro anticancer screening (SRB); settings: NCI-H522, Lung cancer (NSCLC); 10 µM, 48 h
Procedure: as §1

SK-MEL-2 = experiment: NCI-60 in vitro anticancer screening (SRB); settings: SK-MEL-2, Melanoma; 10 µM, 48 h
Procedure: as §2

SK-MEL-5 = experiment: NCI-60 in vitro anticancer screening (SRB); settings: SK-MEL-5, Melanoma; 10 µM, 48 h
Procedure: as §2

HL-60(TB) = experiment: NCI-60 in vitro anticancer screening (SRB); type: cell-based, human; settings: Leukemia, 10 µM, 48 h
COLO 205 = experiment: NCI-60 in vitro anticancer screening (SRB); settings: COLO 205, Colon cancer; 10 µM, 48 h
Procedure: as §1

SF-539 = experiment: NCI-60 in vitro anticancer screening (SRB); settings: SF-539, CNS cancer; 10 µM, 48 h
Procedure: as §1

RPMI-8226 = experiment: NCI-60 in vitro anticancer screening (SRB); settings: RPMI-8226, Leukemia; 10 µM, 48 h
Procedure: as §1

U251 = experiment: NCI-60 in vitro anticancer screening (SRB); settings: U251, CNS cancer; 10 µM, 48 h
Procedure: as §1

HT29 = experiment: NCI-60 in vitro anticancer screening (SRB); settings: HT29, Colon cancer; 10 µM, 48 h
Procedure: as §1

HCT-116 = experiment: NCI-60 in vitro anticancer screening (SRB); settings: HCT-116, Colon cancer; 10 µM, 48 h
Procedure: as §1

SW-620 = experiment: NCI-60 in vitro anticancer screening (SRB); settings: SW-620, Colon cancer; 10 µM, 48 h
Procedure: as §1

SF-295 = experiment: NCI-60 in vitro anticancer screening (SRB); settings: SF-295, CNS cancer; 10 µM, 48 h
Procedure: as §1

[1] = biological target: T1, telomerase inside living cancer cells A549 (Homo sapiens, UniProt O14746); experiment: Living-cell TRAP assay, A549; type: cell-based; settings: percent of control cells, 10 µM, 48 h
T1 construct: host or cells: A549
T1 sequence (O14746 whole entry): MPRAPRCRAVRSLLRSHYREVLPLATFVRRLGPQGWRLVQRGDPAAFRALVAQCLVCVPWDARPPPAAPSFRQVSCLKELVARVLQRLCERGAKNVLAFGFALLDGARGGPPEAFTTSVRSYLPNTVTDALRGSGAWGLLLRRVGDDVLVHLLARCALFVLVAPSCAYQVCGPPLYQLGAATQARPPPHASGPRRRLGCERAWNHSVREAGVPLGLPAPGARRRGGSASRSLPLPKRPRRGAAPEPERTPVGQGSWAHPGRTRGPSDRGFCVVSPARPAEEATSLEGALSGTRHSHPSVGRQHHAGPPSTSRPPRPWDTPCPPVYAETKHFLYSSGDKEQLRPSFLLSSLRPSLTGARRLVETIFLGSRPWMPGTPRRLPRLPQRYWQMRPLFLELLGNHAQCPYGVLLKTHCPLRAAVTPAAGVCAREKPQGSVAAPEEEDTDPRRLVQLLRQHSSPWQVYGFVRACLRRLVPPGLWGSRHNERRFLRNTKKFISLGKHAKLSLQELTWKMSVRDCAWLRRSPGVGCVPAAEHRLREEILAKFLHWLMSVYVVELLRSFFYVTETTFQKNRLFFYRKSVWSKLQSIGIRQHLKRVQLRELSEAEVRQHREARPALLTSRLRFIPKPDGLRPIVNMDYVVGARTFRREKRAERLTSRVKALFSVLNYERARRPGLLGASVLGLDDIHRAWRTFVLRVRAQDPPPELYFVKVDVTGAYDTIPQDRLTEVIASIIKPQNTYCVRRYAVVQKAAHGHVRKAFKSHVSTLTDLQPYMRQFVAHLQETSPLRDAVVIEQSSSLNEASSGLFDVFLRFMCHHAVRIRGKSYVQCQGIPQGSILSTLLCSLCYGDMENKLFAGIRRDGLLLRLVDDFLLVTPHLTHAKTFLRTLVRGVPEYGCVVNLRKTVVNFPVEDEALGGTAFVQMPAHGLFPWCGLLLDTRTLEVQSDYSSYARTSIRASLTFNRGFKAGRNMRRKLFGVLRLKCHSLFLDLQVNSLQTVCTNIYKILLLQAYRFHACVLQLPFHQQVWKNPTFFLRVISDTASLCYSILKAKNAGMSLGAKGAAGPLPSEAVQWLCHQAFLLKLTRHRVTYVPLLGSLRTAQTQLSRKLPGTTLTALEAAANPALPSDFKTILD
T1 sequence (O60832 whole entry partner): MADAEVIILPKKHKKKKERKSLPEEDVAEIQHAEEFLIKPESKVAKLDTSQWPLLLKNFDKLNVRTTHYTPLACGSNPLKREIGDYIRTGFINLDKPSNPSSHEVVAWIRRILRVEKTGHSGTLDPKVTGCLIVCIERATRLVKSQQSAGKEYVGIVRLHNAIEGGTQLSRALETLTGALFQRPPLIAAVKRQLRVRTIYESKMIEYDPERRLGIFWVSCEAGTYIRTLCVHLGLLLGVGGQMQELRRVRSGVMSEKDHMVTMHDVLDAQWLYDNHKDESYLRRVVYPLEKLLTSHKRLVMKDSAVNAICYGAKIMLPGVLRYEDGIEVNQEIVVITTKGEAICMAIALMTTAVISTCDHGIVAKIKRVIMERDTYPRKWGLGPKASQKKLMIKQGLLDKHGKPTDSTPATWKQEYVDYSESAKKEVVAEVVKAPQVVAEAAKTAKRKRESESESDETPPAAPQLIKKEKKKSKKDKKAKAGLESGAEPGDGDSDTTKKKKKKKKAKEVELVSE
T1 sequence (Q9NX24 whole entry partner): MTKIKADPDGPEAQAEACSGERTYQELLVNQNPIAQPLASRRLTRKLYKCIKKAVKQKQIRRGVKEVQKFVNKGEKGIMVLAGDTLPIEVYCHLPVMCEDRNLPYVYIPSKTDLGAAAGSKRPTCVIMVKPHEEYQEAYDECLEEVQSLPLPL
T1 sequence (Q9NPE3 whole entry partner): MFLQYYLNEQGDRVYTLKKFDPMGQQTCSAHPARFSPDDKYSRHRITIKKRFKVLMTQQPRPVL
T1 sequence (Q9NY12 whole entry partner): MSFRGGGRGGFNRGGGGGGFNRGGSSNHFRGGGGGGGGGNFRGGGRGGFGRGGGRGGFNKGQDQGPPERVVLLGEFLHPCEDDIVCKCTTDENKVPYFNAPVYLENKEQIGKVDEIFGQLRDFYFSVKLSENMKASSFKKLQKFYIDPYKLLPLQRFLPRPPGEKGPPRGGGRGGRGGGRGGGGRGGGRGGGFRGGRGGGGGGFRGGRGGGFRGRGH
T1 sequence (Q9BUR4 whole entry partner): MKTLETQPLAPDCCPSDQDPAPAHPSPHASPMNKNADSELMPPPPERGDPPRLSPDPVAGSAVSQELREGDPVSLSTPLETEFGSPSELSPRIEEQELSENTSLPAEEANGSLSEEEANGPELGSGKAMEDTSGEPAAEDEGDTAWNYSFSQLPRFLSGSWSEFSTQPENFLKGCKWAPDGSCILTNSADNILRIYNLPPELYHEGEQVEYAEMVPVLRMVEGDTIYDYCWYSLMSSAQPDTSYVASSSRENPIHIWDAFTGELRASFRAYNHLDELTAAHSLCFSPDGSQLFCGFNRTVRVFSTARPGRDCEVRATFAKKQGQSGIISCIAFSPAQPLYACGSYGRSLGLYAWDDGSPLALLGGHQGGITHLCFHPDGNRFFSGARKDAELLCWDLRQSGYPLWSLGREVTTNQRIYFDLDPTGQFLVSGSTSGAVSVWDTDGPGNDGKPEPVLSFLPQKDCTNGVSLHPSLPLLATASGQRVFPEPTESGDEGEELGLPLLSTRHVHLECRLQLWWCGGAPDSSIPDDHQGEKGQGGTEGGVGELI
Procedure: (§3) The Telomeric Repeat Amplification Protocol (TRAP) [61] was used to evaluate the activity of telomerase, with some changes that we have previously described [62, 63]. A549 cells (human epithelial cell lung carcinoma, ATCC, Manassas, VA) were lysed in (10 mM) Tris-HCl, pH 7.5, (1 mM) EGTA, (1 mM) MgCl2, (5 mM) 2-mercaptoethanol, (0.1 mM) PMSF, (0.5%) CHAPS, and (10%) glycerol (Sigma-Aldrich, St. Louis, MO, USA) and centrifugation. The supernatants were kept at -80 °C. The BCA-1 Protein Assay Kit was used to assess the protein concentration in cell extracts (Sigma-Aldrich, St. Louis, MO, USA). […] To inactivate telomerase, the cells were elongated for 30 min at 37 °C and 10 min at 96 °C. Copy CX-primer was added to the elongation mixture along with 0.1 μL ([NT]) and 2.5 units Taq-polymerase, followed by the following PCR: 94 °C for 5 min; 30 cycles of 94 °C for 30 s, 50 °C for 30 s, and 72 °C for 40 s, and 72 °C for 5 min. TBE buffer and (12%) nondenaturing PAAG electrophoresis were used to visualize the PCR product. 10 μL of each sample was placed in each well of gel comb. The gels were stained with the SYBR Green I (Invitrogen, Grand Island, NY, USA), then photographed under the UV light in ChemiDocTM XRS imaging system and analyzed with GelAnalyzer 2010.

HCC-2998 = experiment: NCI-60 in vitro anticancer screening (SRB); settings: HCC-2998, Colon cancer; 10 µM, 48 h
Procedure: as §1

SK-MEL-28 = experiment: NCI-60 in vitro anticancer screening (SRB); settings: SK-MEL-28, Melanoma; 10 µM, 48 h
Procedure: as §2

[2] = biological target: T2, telomerase inside living cancer cells NCI-H23 (Homo sapiens, UniProt O14746); experiment: Living-cell TRAP assay, NCI-H23; type: cell-based; settings: percent of control cells, 10 µM, 48 h
T2 construct: host or cells: NCI-H23
T2 sequence (O14746 whole entry): as the sequence (O14746 whole entry) above
T2 sequence (O60832 whole entry partner): as the sequence (O60832 whole entry partner) above
T2 sequence (Q9NX24 whole entry partner): as the sequence (Q9NX24 whole entry partner) above
T2 sequence (Q9NPE3 whole entry partner): as the sequence (Q9NPE3 whole entry partner) above
T2 sequence (Q9NY12 whole entry partner): as the sequence (Q9NY12 whole entry partner) above
T2 sequence (Q9BUR4 whole entry partner): as the sequence (Q9BUR4 whole entry partner) above
Procedure: as §3

SN12C = experiment: NCI-60 in vitro anticancer screening (SRB); settings: Renal cancer, 10 µM, 48 h
Procedure: as §1

K-562 = experiment: NCI-60 in vitro anticancer screening (SRB); settings: K-562, Leukemia; 10 µM, 48 h
Procedure: as §1

MDA-MB-435 = experiment: NCI-60 in vitro anticancer screening (SRB); settings: MDA-MB-435, Melanoma; 10 µM, 48 h
Procedure: as §2

OVCAR-3 = experiment: NCI-60 in vitro anticancer screening (SRB); settings: OVCAR-3, Ovarian cancer; 10 µM, 48 h
Procedure: as §1

NCI-H460 = experiment: NCI-60 in vitro anticancer screening (SRB); settings: NCI-H460, Lung cancer (NSCLC); 10 µM, 48 h
Procedure: as §1

N#C/C(=C\c1ccc2ccccc2c1)C(=O)Nc1sc2c(c1C#N)CCCC2 [Compound 36b, (2E)-2-Cyano-N-(3-cyano-4,5,6,7-tetrahydro-1-benzothiophen-2-yl)-3-(naphthalen-2-yl)prop-2-enamide]
Growth Percent (OVCAR-5): 104.98% | Growth Percent (HCT-15): 99.95% | Growth Percent (HOP-92): 90.75% | Growth Percent (SF-268): 104.45% | Growth Percent (NCI/ADR-RES): 99.44% | Growth Percent (OVCAR-4): 100.16% | Growth Percent (SNB-75): 101.09% | Growth Percent (T-47D): 97.26% | Growth Percent (MDA-MB-468): 90.36% | Growth Percent (A498): 99.38% | Growth Percent (A549/ATCC): 100.18% | Growth Percent (HS 578T): 103.54% | Growth Percent (EKVX): 92.47% | Growth Percent (NCI-H522): 94.31% | Growth Percent (SK-MEL-2): 100.31% | Growth Percent (SK-MEL-5): 97.65% | Growth Percent (HL-60(TB)): 99.47% | Growth Percent (COLO 205): 103.10% | Growth Percent (SF-539): 98.71% | Growth Percent (RPMI-8226): 99.85% | Growth Percent (U251): 98.73% | Growth Percent (HT29): 112.60% | Growth Percent (HCT-116): 100.18% | Growth Percent (SW-620): 103.69% | Growth Percent (SF-295): 95.53% | % Telomerase Activity in Cancer Cells [1]: 18.1 ± 5.4% | Growth Percent (HCC-2998): 114.98% | Growth Percent (SK-MEL-28): 102.31% | % Telomerase Activity in Cancer Cells [2]: 25.1 ± 3.2% | Growth Percent (SN12C): 100.72% | Growth Percent (K-562): 99.98% | Growth Percent (MDA-MB-435): 101.92% | Growth Percent (OVCAR-3): 98.78% | Growth Percent (NCI-H460): 102.88%
